According to patent US20260042731A1, “(2,4-DICHLOROPHENOXY)ACETIC ACID ANALOGS” (CORTEVA AGRISCIENCE LLC, priority 2022, published 2026):
Read-outs that look alike come from different tables or passages of the source.

Assays:
[1] = tested on: Amaranthus rudis (AMATA), tall water hemp; test: Postemergence herbicide evaluation, growth of Amaranthus rudis (AMATA); assay type: in vivo; conditions: for pest or weed control at 280 g/ha / pest or weed control at 560 g/ha: Amaranthus tuberculatus, post-emergence, read-out: Ave. AMATA, percent reduction in plant size relative to the untreated control; for Ave. AMATA: percent reduction in plant size vs untreated control
Corn (ZEAMX) = test: Greenhouse post-emergence mixture trials, percent visual control; assay type: in vivo; conditions: ZEAMX, 21 DAA
[2] = tested on: Common Lambsquarters (CHEAL); test: as above; assay type: in vivo; conditions: CHEAL, 21 DAA, Trial Bridge 2, compound 560 g ae/ha + Saflufenacil 75 g ai or ae/ha
[3] = tested on: glyphosate resistant Conyza canadensis (L.) (ERICA), horseweed; test: Postemergence herbicide evaluation, growth of Conyza canadensis (ERICA); assay type: in vivo; conditions: for pest or weed control at 280 g/ha / pest or weed control at 560 g/ha: Erigeron canadensis, post-emergence, read-out: Ave. ERICA, percent reduction in plant size relative to the untreated control; for Ave. ERICA: percent reduction in plant size vs untreated control
[4] = tested on: Ambrosia artemisiifolia (AMBEL), common ragweed; test: Postemergence herbicide evaluation, growth of Ambrosia artemisiifolia (AMBEL); assay type: in vivo; conditions: for pest or weed control at 280 g/ha / pest or weed control at 560 g/ha: Ambrosia artemisiifolia, post-emergence, read-out: AVE. AMBEL, percent reduction in plant size relative to the untreated control; for AVE. AMBEL: percent reduction in plant size vs untreated control
[5] = Volatility of compounds measured by thermogravimetric analysis (TGA); assay type: physicochemical
[6] = tested on: weeds ABUTH, AMATA, AMBEL, CHEAL, ERICA; test: Postemergence herbicide evaluation, overall average % weed control (ABUTH, AMATA, AMBEL, CHEAL, ERICA); assay type: in vivo; conditions: post-emergence, read-out: Overall Ave % Weed Control; for pest or weed control at 280 g/ha: 280 g ae/ha; for pest or weed control at 560 g/ha: 560 g ae/ha
[7] = tested on: Abutilon theophrasti (ABUTH), velvetleaf; test: Postemergence herbicide evaluation, growth of Abutilon theophrasti (ABUTH); assay type: in vivo; conditions: for pest or weed control at 280 g/ha / pest or weed control at 560 g/ha: Abutilon theophrasti, post-emergence, read-out: AVE. ABUTH, percent reduction in plant size relative to the untreated control; for AVE. ABUTH: percent reduction in plant size vs untreated control
[8] = tested on: Chenopodium album (CHEAL), common lambsquarters; test: Postemergence herbicide evaluation, growth of Chenopodium album (CHEAL); assay type: in vivo; conditions: for pest or weed control at 280 g/ha / pest or weed control at 560 g/ha: Chenopodium album, post-emergence, read-out: Ave. CHEAL, percent reduction in plant size relative to the untreated control; for Ave. CHEAL: percent reduction in plant size vs untreated control
[9] = tested on: weeds ABUTH, AMATA, AMBEL, CHEAL, ERICA; test: Postemergence herbicide evaluation, overall average % weed control across ABUTH, AMATA, AMBEL, CHEAL and ERICA; assay type: in vivo; conditions: average over five weeds
[10] = tested on: Glycine max (Enlist E3 traited soybeans, GLXMA); conditions: Enlist E3 soybean, percent reduction in plant size vs untreated control

Structure (SMILES): O=C(COc1ccc(Cl)cc1Cl)Nc1ccon1 [Compound D2, 2-(2,4-Dichlorophenoxy)-N-(isoxazol-3-yl)acetamide]
- pest or weed control at 280 g/ha ([1]; 168 h, 280 g ae/ha, 7 DAA): 70%
- pest or weed control at 560 g/ha ([1]; 168 h, 560 g ae/ha, 7 DAA): 78%
- pest or weed control at 280 g/ha ([1]; 336 h, 280 g ae/ha, 14 DAA): 85%
- pest or weed control at 560 g/ha ([1]; 336 h, 560 g ae/ha, 14 DAA): 92%
- pest or weed control at 280 g/ha ([1]; 504 h, 280 g ae/ha, 21 DAA): 94%
- pest or weed control at 560 g/ha ([1]; 504 h, 560 g ae/ha, 21 DAA): 97%
- % Control (Corn (ZEAMX); Trial Bridge 1, compound 1120 g ae/ha + Glufosinate 600 g ai or ae/ha): 5%
- plant injury at 560 g/ha (Corn (ZEAMX); Zea mays, post-emergence, 504 h, compound 560 g ae/ha, no mixing partner, Trial Bridge 3): 5%
- % Control [2]: 100%
- pest or weed control at 280 g/ha ([3]; 168 h, 280 g ae/ha, 7 DAA): 68%
- pest or weed control at 560 g/ha ([3]; 168 h, 560 g ae/ha, 7 DAA): 73%
- pest or weed control at 280 g/ha ([3]; 336 h, 280 g ae/ha, 14 DAA): 88%
- pest or weed control at 560 g/ha ([3]; 336 h, 560 g ae/ha, 14 DAA): 94%
- pest or weed control at 280 g/ha ([3]; 504 h, 280 g ae/ha, 21 DAA): 91%
- pest or weed control at 560 g/ha ([3]; 504 h, 560 g ae/ha, 21 DAA): 99%
- pest or weed control at 280 g/ha ([4]; 168 h, 280 g ae/ha, 7 DAA): 68%
- pest or weed control at 560 g/ha ([4]; 168 h, 560 g ae/ha, 7 DAA): 73%
- pest or weed control at 280 g/ha ([4]; 336 h, 280 g ae/ha, 14 DAA): 89%
- pest or weed control at 560 g/ha ([4]; 336 h, 560 g ae/ha, 14 DAA): 97%
- pest or weed control at 280 g/ha ([4]; 504 h, 280 g ae/ha, 21 DAA): 100%
- pest or weed control at 560 g/ha ([4]; 504 h, 560 g ae/ha, 21 DAA): 97%
- TGA Data (rate of weight loss, volatility) [5]: 0.2 µg/min
- pest or weed control at 280 g/ha ([6]; 168 h, 7 DAA): 71%
- pest or weed control at 560 g/ha ([6]; 168 h, 7 DAA): 77%
- pest or weed control at 280 g/ha ([6]; 336 h, 14 DAA): 83%
- pest or weed control at 560 g/ha ([6]; 336 h, 14 DAA): 92%
- pest or weed control at 280 g/ha ([6]; 504 h, 21 DAA): 88%
- pest or weed control at 560 g/ha ([6]; 504 h, 21 DAA): 98%
- pest or weed control at 280 g/ha ([7]; 168 h, 280 g ae/ha, 7 DAA): 78%
- pest or weed control at 560 g/ha ([7]; 168 h, 560 g ae/ha, 7 DAA): 88%
- pest or weed control at 280 g/ha ([7]; 336 h, 280 g ae/ha, 14 DAA): 83%
- pest or weed control at 560 g/ha ([7]; 336 h, 560 g ae/ha, 14 DAA): 93%
- pest or weed control at 280 g/ha ([7]; 504 h, 280 g ae/ha, 21 DAA): 80%
- pest or weed control at 560 g/ha ([7]; 504 h, 560 g ae/ha, 21 DAA): 99%
- pest or weed control at 280 g/ha ([8]; 168 h, 280 g ae/ha, 7 DAA): 70%
- pest or weed control at 560 g/ha ([8]; 168 h, 560 g ae/ha, 7 DAA): 73%
- pest or weed control at 280 g/ha ([8]; 336 h, 280 g ae/ha, 14 DAA): 73%
- pest or weed control at 560 g/ha ([8]; 336 h, 560 g ae/ha, 14 DAA): 88%
- pest or weed control at 280 g/ha ([8]; 504 h, 280 g ae/ha, 21 DAA): 78%
- pest or weed control at 560 g/ha ([8]; 504 h, 560 g ae/ha, 21 DAA): 97%

Structure (SMILES): CC(C)CCCCCOC(=O)COc1ccc(Cl)cc1Cl [Isooctyl Ester, 2,4-D-isoctyl, reference compound]
- Ave. AMATA ([1]; 280 g ae/ha, 7 DAA): 80%
- Ave. AMATA ([1]; 280 g ae/ha, 14 DAA): 92.5%
- Ave. AMATA ([1]; 280 g ae/ha, 21 DAA): 65%
- Ave. AMATA ([1]; 560 g ae/ha, 7 DAA): 85%
- Ave. AMATA ([1]; 560 g ae/ha, 14 DAA): 87.5%
- Ave. AMATA ([1]; 560 g ae/ha, 21 DAA): 85%
- Ave. ERICA ([3]; 280 g ae/ha, 7 DAA): 85%
- Ave. ERICA ([3]; 280 g ae/ha, 14 DAA): 100%
- Ave. ERICA ([3]; 280 g ae/ha, 21 DAA): 98%
- Ave. ERICA ([3]; 560 g ae/ha, 7 DAA): 85%
- Ave. ERICA ([3]; 560 g ae/ha, 14 DAA): 98.5%
- Ave. ERICA ([3]; 560 g ae/ha, 21 DAA): 99.5%
- AVE. AMBEL ([4]; 280 g ae/ha, 7 DAA): 82.5%
- AVE. AMBEL ([4]; 280 g ae/ha, 14 DAA): 77.5%
- AVE. AMBEL ([4]; 280 g ae/ha, 21 DAA): 100%
- AVE. AMBEL ([4]; 560 g ae/ha, 7 DAA): 65%
- AVE. AMBEL ([4]; 560 g ae/ha, 14 DAA): 90%
- AVE. AMBEL ([4]; 560 g ae/ha, 21 DAA): 100%
- Overall Ave % Weed Control ([9]; 280 g ae/ha, 7 DAA): 80.5%
- Overall Ave % Weed Control ([9]; 280 g ae/ha, 14 DAA): 89%
- Overall Ave % Weed Control ([9]; 280 g ae/ha, 21 DAA): 91.3%
- Overall Ave % Weed Control ([9]; 560 g ae/ha, 7 DAA): 78%
- Overall Ave % Weed Control ([9]; 560 g ae/ha, 14 DAA): 94.2%
- Overall Ave % Weed Control ([9]; 560 g ae/ha, 21 DAA): 95.6%
- AVE. GLXMA ([10]; 280 g ae/ha, 7 DAA): 0%
- AVE. GLXMA ([10]; 280 g ae/ha, 14 DAA): 0%
- AVE. GLXMA ([10]; 280 g ae/ha, 21 DAA): 0%
- AVE. GLXMA ([10]; 560 g ae/ha, 7 DAA): 0%
- AVE. GLXMA ([10]; 560 g ae/ha, 14 DAA): 0%
- AVE. GLXMA ([10]; 560 g ae/ha, 21 DAA): 0%
- AVE. ABUTH ([7]; 280 g ae/ha, 7 DAA): 72.5%
- AVE. ABUTH ([7]; 280 g ae/ha, 14 DAA): 80%
- AVE. ABUTH ([7]; 280 g ae/ha, 21 DAA): 97.5%
- AVE. ABUTH ([7]; 560 g ae/ha, 7 DAA): 77.5%
- AVE. ABUTH ([7]; 560 g ae/ha, 14 DAA): 98.5%
- AVE. ABUTH ([7]; 560 g ae/ha, 21 DAA): 100%
- Ave. CHEAL ([8]; 280 g ae/ha, 7 DAA): 82.5%
- Ave. CHEAL ([8]; 280 g ae/ha, 14 DAA): 95%
- Ave. CHEAL ([8]; 280 g ae/ha, 21 DAA): 96%
- Ave. CHEAL ([8]; 560 g ae/ha, 7 DAA): 77.5%
- Ave. CHEAL ([8]; 560 g ae/ha, 14 DAA): 96.5%
- Ave. CHEAL ([8]; 560 g ae/ha, 21 DAA): 93.5%
